According to PMC10376326, “Novel Acylselenourea Derivatives: Dual Molecules with Anticancer and Radical Scavenging Activity” (Antioxidants, 2023):
Read-outs that look alike come from different tables or passages of the source.

Legend:
[1] = set-up: method as in PMID 36671001; details: selenoester analogs, 0.03 mg/mL, 90 min; cited from earlier work
[2] = DPPH radical scavenging assay; assay type: biochemical; details: for DPPH Inhibitory%: acylselenourea analogs
Procedure: Different methods are available to quantify the antioxidant capacity of natural or novel molecules. Notable among these are the ABTS^•+ and DPPH^• methods, which measure the quenching efficiency in vitro for known concentrations of preformed radicals. In this work, the DPPH^• colorimetric assay was carried out. Measurements were recorded on a BioTeck PowerWave XS spectrophotometer (BioTeck Instruments, Winooski, VT, USA) and data were collected using KCJunior v.1.41. software (BioTeck Instruments, Winooski, VT, USA). Compounds with potent activity were selected to further determine their protective effect against ROS-induced cell death caused by H2O2.
DPPH colorimetric assay was performed to determine the in vitro radical scavenging activity of the acylselenourea derivatives. DPPH assay was performed as described by Svinyarov. For each acylselenourea, a stock solution of 1 mg/mL in dimethyl sulfoxide (DMSO) was made, and these solutions were used to prepare the different concentrations employed in the assay. The compounds were tested at two different concentrations (0.003 and 0.03 mg/mL). Intermediate solutions were prepared in methanol and a volume of 100 µL of each was added to each well of the plate. Then, 100 µL of DPPH^• (previously prepared at a concentration of 0.04 mg/mL in methanol and preserved in the dark) was added to the previous methanolic acylselenourea solutions. The discoloration of the purple radical to the yellow reduced form was followed at 517 nm at different time points (0, 5, 15, 30, 60, 90, and 120 min). Ascorbic acid and trolox were used as positive controls. All measurements were carried out in triplicate. Results are expressed as the percentage of the radicals scavenged, calculated using the following formula: (1) % DPPH radical scavenging=Acontrol - Asample/Acontrol × 100 where Acontrol refers to the absorbance of the negative control and Asample refers to the absorbance of the tested compounds. Results are expressed as percentage of DPPH radical scavenging ± SD.

[3] = system: HTB-54 (lung) cancer cell line; test: MTT cell viability assay, HTB-54; assay type: cell-based, human; details: for activity at 10 µM: read-out: Cell growth %, HTB-54, 10 µM, 48 h, MTT; for activity at 50 µM: read-out: Cell growth %, HTB-54, 50 µM, 48 h, MTT
Procedure: (§1) Cell lines were purchased from the American Type Culture Collection (ATCC). Cell lines MDA-MB-231, HTB-54, DU-145, and BEAS-2B were cultured in RPMI 1640 medium (Gibco, Thermo Fisher Scientific, Gaithersburg, MD, USA) supplemented with 10% fetal bovine serum (FBS; Gibco), 100 units/mL penicillin, and […] streptomycin (Gibco). HT-29 cell line was grown in McCoy’s 5A (Gibco), 10% FBS, 100 units/mL penicillin, and 100 μg/mL streptomycin. Cells were maintained at 37 °C and 5% CO2. The culture medium was changed every three days.
(§2) The cell viability of each compound was measured by MTT colorimetric assay. Each compound was dissolved in DMSO at a concentration of 0.01 M. Each compound was tested at two different concentrations (10 and 50 µM) in MDA-MB-231 (breast), HTB-54 (lung), DU-145 (prostate), and HT-29 (colon) human cancer cell lines. Serial dilutions were prepared with supplemented culture medium. […] IC50 and selectivity indexes (SI) were determined.
(§3) Briefly, 1 × 10^4 tumor cells per well were grown in 96-well plates for 24 h. Then, these cells were incubated for 48 h with either DMSO (control) or a different concentration of each of the tested compounds. The cell viability was determined by adding 20 μL of MTT two hours and a half before the termination point. After this time, the culture medium was removed. The resulting formazan crystals were dissolved in 50 μL of DMSO, and the absorbance was measured at 570 nm. Results are expressed as % cell growth. The data were obtained from at least three independent experiments performed in quadruplicate.

[4] = system: MDA-MB-231 (breast) cancer cell line; test: MTT cell viability assay, MDA-MB-231; assay type: cell-based, human; details: Homo sapiens, MDA-MB-231, 48 h; for activity at 10 µM: read-out: Cell growth %, MDA-MB-231, 10 µM, 48 h, MTT; for activity at 50 µM: read-out: Cell growth %, MDA-MB-231, 50 µM, 48 h, MTT
Procedure: as §1, §2, §3

[5] = system: DU-145 (prostate) cancer cell line; test: MTT cell viability assay, DU-145; assay type: cell-based, human; details: for activity at 10 µM / activity at 50 µM: Homo sapiens, DU-145, 48 h; for activity at 10 µM: read-out: Cell growth %, DU-145, 10 µM, 48 h, MTT; for activity at 50 µM: read-out: Cell growth %, DU-145, 50 µM, 48 h, MTT
Procedure: as §1, §2, §3

[6] = system: HT-29 (colon) cancer cell line; test: MTT cell viability assay, HT-29; assay type: cell-based; details: Homo sapiens, HT-29, 48 h, read-out: Cell growth %; for activity at 10 µM: HT-29, 10 µM; for activity at 50 µM: HT-29, 50 µM
Procedure: as §1, §2, §3

[7] = system: MDA-MB-231, HT-29, HTB-54 and DU-145 cancer cell lines; test: MTT cell viability assay, statements over the panel of cancer cell lines; assay type: cell-based, human; details: 10 µM, over the four cancer cell lines
Procedure: as §1, §2, §3

[8] = system: non-malignant BEAS-2B lung cell line; test: MTT cell viability assay, BEAS-2B; assay type: cell-based; details: Homo sapiens, normal lung, 48 h
Procedure: as §1, §2, §3

Compound | inhibition ([2]; 0.003 mg/mL, 0 min) [%] | inhibition ([2]; 0.003 mg/mL, 5 min) [%] | inhibition ([2]; 0.003 mg/mL, 15 min) [%] | inhibition ([2]; 0.003 mg/mL, 30 min) [%] | inhibition ([2]; 0.003 mg/mL, 60 min) [%] | inhibition ([2]; 0.003 mg/mL, 90 min) [%] | inhibition ([2]; 0.003 mg/mL, 120 min) [%] | inhibition ([2]; 0.03 mg/mL, 0 min) [%] | inhibition ([2]; 0.03 mg/mL, 5 min) [%] | inhibition ([2]; 0.03 mg/mL, 15 min) [%] | inhibition ([2]; 0.03 mg/mL, 30 min) [%] | inhibition ([2]; 0.03 mg/mL, 60 min) [%] | inhibition ([2]; 0.03 mg/mL, 120 min) [%] | activity at 10 µM ([3]; Homo sapiens, HTB-54, 48 h) [%] | activity at 50 µM ([3]; Homo sapiens, HTB-54, 48 h) [%] | activity at 10 µM [4] [%] | activity at 50 µM [4] [%] | activity at 10 µM [5] [%] | activity at 50 µM [5] [%] | activity at 10 µM [6] [%] | other results
C#CC[Se]C(=O)c1cccs1 [C00003 2-thiophenyl] |  |  |  |  |  |  |  |  |  |  |  |  |  |  |  |  |  |  |  |  | DPPH Inhibitory% [1]: 0.0 ± 2.1%
C#CC[Se]C(=O)c1cccnc1 [C00003 3-pyridyl] |  |  |  |  |  |  |  |  |  |  |  |  |  |  |  |  |  |  |  |  | DPPH Inhibitory% [1]: 7.4 ± 0.7%
C#CC[Se]C(=O)c1ccc2c(c1)OCO2 [C00003 5-benzo[d][1, 3]dioxyl] |  |  |  |  |  |  |  |  |  |  |  |  |  |  |  |  |  |  |  |  | DPPH Inhibitory% [1]: 4.2 ± 8.0%
C#CC[Se]C(=O)c1ccccc1 [C00003 phenyl] |  |  |  |  |  |  |  |  |  |  |  |  |  |  |  |  |  |  |  |  | DPPH Inhibitory% [1]: 3.5 ± 0.9%
C=CCNC(=[Se])NC(=O)c1ccco1 [Compound 1.II, N-(allylcarbamoselenoyl)furan-2-carboxamide] | 1.7 ± 0.3 | 5.4 ± 0.5 | 8.8 ± 0.9 | 12.1 ± 1.2 | 16.5 ± 1.5 | 19.5 ± 1.7 | 21.1 ± 1.4 | 16 ± 1.9 | 45.2 ± 5.1 | 65.4 ± 4.1 | 85.4 ± 4.9 | 96.5 ± 0.6 | 96.5 ± 0.5 | 54.9 ± 11.2 | 11.1 ± 5.2 | 80.4 ± 8.4 | 14.5 ± 7.9 | 81.5 ± 13.5 | 10.6 ± 5.7 | 95 ± 15.7 | time to reach the highest DPPH inhibition ([2]; 0.03 mg/mL): 60 min; DPPH Inhibitory% ([2]; 0.03 mg/mL, 90 min): 96.6 ± 0.6%; activity at 50 µM [6]: 16.6 ± 5.3%; cell growth % [7]: 54.8–95.0%
C#CCNC(=[Se])NC(=O)c1cccs1 [Compound 2.III, N-(prop-2-in-1-ylcarbamoselenoyl)thiophene-2-carboxamide] | 2.4 ± 0.6 | 4.3 ± 0.4 | 5.4 ± 0.3 | 6.5 ± 0.5 | 7.1 ± 0.5 | 7.3 ± 0.6 | 7.3 ± 0.6 | 14.5 ± 2.3 | 12.8 ± 3 | 19.8 ± 2.8 | 24.8 ± 2.6 | 30.2 ± 2.9 | 34.4 ± 2.9 | 76.8 ± 6.8 | 44.7 ± 3.5 | 27.4 ± 5.4 | 9.48 ± 7.8 | 12.8 ± 2.8 | 14.3 ± 6.7 | 43.4 ± 4.2 | DPPH Inhibitory% ([2]; 0.03 mg/mL, 90 min): 33.0 ± 3.1%; IC50 ([3]; Homo sapiens, HTB-54, 48 h, read-out: IC50 HTB-54, Lung, MTT, 48 h): 11.6 ± 1.6 µM; SI ([3]; IC50 (BEAS-2B)/IC50 (HTB-54)): 2.3; activity at 50 µM [6]: 20.6 ± 4%; IC50 [8]: 26.6 ± 4 µM
C=CCNC(=[Se])NC(=O)/C=C/c1ccccc1 [Compound 6.II, N-(allylcarbamoselenoyl)cinnamamide] | 0 | 0 | 0 | 0 | 0 | 0.5 ± 2.3 | 1.1 ± 2.3 | 0 | 1 ± 1.7 | 4.6 ± 1.3 | 9.8 ± 1.1 | 18.8 ± 0.9 | 34.2 ± 0.7 | 68.7 ± 8.2 | 44.1 ± 10.6 | 51.8 ± 6.8 | 30.5 ± 7.1 | 57.3 ± 3.6 | 14.6 ± 4.5 | 94.7 ± 5.3 | DPPH Inhibitory% ([2]; 0.03 mg/mL, 90 min): 26.7 ± 0.6%; cell growth % ([5]; DU-145, 10 µM, 48 h, MTT): 57.30%; activity at 50 µM [6]: 56.1 ± 11%
C=CCNC(=[Se])NC(=O)c1ccc2c(c1)OCO2 [Compound 8.II, N-(allylcarbamoselenoyl)benzo[d][1,3]dioxole-5-carboxamide] | 1.2 ± 1.4 | 2.8 ± 1.3 | 5 ± 1.2 | 7.1 ± 1.1 | 9.7 ± 1.1 | 10.9 ± 1.2 | 11.7 ± 1.2 | 17.6 ± 4.6 | 39 ± 3 | 55.5 ± 2.1 | 68 ± 1.7 | 81.4 ± 1.3 | 93.7 ± 1.4 | 51.9 ± 15 | 20 ± 6.6 | 80.7 ± 6.4 | 15.5 ± 7.6 | 88.6 ± 10.1 | 10.3 ± 4.2 | 83.5 ± 16.4 | DPPH Inhibitory% ([2]; 0.03 mg/mL, 90 min): 88.2 ± 1.3%; activity at 50 µM [6]: 26.6 ± 3.8%
C=CCNC(=O)c1cccc(C(=O)NC(=[Se])NCC=C)c1 [Compound 11.II, N^1-allyl-N^3-(allylcarbamoselenoyl)isophthalamide] | 0 | 2.5 ± 1.4 | 5.8 ± 1.2 | 8.6 ± 0.9 | 11.6 ± 1 | 12.8 ± 0.8 | 13.5 ± 0.7 | 11 ± 3 | 38.5 ± 0.3 | 56.8 ± 0.6 | 70.1 ± 1 | 83 ± 1 | 94.3 ± 1.2 | 48.3 ± 6.9 | 5.94 ± 4.7 | 77.1 ± 10.1 | 14.7 ± 7.8 | 93.8 ± 8 | 22 ± 5.8 | 88.1 ± 4.8 | inhibition ([2]; 0.03 mg/mL, 90 min): 89.6 ± 1.2%; activity at 50 µM [6]: 30.8 ± 4%
